The values that follow come from PubChem BioAssay (NCI).

Test systems include T-47D breast; MDA-MB-435; OVCAR-3 ovarian; HCT-15 colon; LOX IMVI melanoma; HCC-2998 colon; SK-MEL-2 melanoma; UACC-62 melanoma; HS 578T breast; M14 melanoma.
Experiment in all cases: NCI anticancer screen, dose series, 48 h

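Test compounds were applied to cells in 96-well plates for 48 hours at 5 doses. TGI: concentration producing complete growth inhibition.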

For `CCNC(=S)NNC(=O)c1ccccc1Nc1ccccc1C(=O)NNC(=S)NCC`, the TGI in the assay with T-47D breast, in the assay with MDA-MB-435, in the assay on OVCAR-3 ovarian, with HCT-15 colon, in the assay on LOX IMVI melanoma and in the assay with HCC-2998 colon was above 100 µM in each case. In addition, the TGI in the assay on SK-MEL-2 melanoma, in the assay on UACC-62 melanoma, in the assay with HS 578T breast and with M14 melanoma was above 100 µM throughout.

Consider `O=S(=O)(c1ccccc1)c1ccc(-c2nc(-c3ccc4c(c3)Sc3ccccc3S4)cs2)cc1`, for which the TGI in the assay with T-47D breast, with MDA-MB-435, in the assay with OVCAR-3 ovarian, with HCT-15 colon, in the assay on LOX IMVI melanoma and with HCC-2998 colon was above 100 µM in each case. Also, the TGI with UACC-62 melanoma, in the assay on HS 578T breast and with M14 melanoma was above 100 µM throughout.

With `CC[C@]12C=CCN3CC[C@@]4(c5cc(Br)c(OC)cc5N(C)[C@H]4[C@@](O)(C(=O)NC(Cc4c[nH]c5ccccc45)C(=O)OC)[C@@H]1O)[C@@H]32` (stereo not given in full), the TGI with T-47D breast was above 100 µM; with MDA-MB-435 it was above 100 µM; with OVCAR-3 ovarian, above 100 µM; in the assay with HCT-15 colon, above 100 µM; in the assay on LOX IMVI melanoma it was 90.9 µM; in the assay on SK-MEL-2 melanoma it was above 100 µM. For the same compound, the TGI in the assay on UACC-62 melanoma, in the assay on HS 578T breast and in the assay on M14 melanoma was above 100 µM throughout.

As to `C=C(C)CCC1C=[N+]([O-])OC(C)(C)C1(C)C` (stereo not given), the TGI in the assay with T-47D breast, with MDA-MB-435, in the assay with OVCAR-3 ovarian, in the assay on HCT-15 colon, with LOX IMVI melanoma and with HCC-2998 colon was above 100 µM each time. Also, the TGI in the assay on UACC-62 melanoma, in the assay on HS 578T breast and in the assay on M14 melanoma was above 100 µM throughout.

As to `COc1ccc(-c2oc3cc(O)c(OC)c(O)c3c(=O)c2O)cc1`, the TGI with T-47D breast was above 100 µM; with MDA-MB-435, above 100 µM; with OVCAR-3 ovarian, above 100 µM; in the assay with HCT-15 colon it was 52.2 µM; with LOX IMVI melanoma, above 78.6 µM; in the assay on HCC-2998 colon it was above 60.2 µM. For the same compound, the TGI in the assay with SK-MEL-2 melanoma was above 100 µM; in the assay with UACC-62 melanoma it was above 87.8 µM; in the assay on HS 578T breast, above 92.7 µM; in the assay on M14 melanoma, above 100 µM.

For `CSc1ccc2c(c1)c(CCN)c(C)n2Cc1ccccc1Cl`, the TGI was 3.09 µM in the assay with T-47D breast; 3.08 µM in the assay with MDA-MB-435; 3.3 µM in the assay with OVCAR-3 ovarian; 4.45 µM in the assay on HCT-15 colon; 2.04 µM with HCC-2998 colon; 3.26 µM with SK-MEL-2 melanoma. In addition, the TGI turned out to be 3.05 µM in the assay with UACC-62 melanoma, 3.67 µM in the assay with HS 578T breast and 3.32 µM in the assay with M14 melanoma.

Turning to `O=c1c2c3c(sc2nc2n1NC=NN2)CCCC3`, the TGI with T-47D breast is above 65.8 µM; in the assay with MDA-MB-435, 26.4 µM; in the assay on OVCAR-3 ovarian, 30.5 µM; with HCT-15 colon, 37.5 µM; in the assay on LOX IMVI melanoma, 4.88 µM; with HCC-2998 colon, 51.7 µM. Besides, the TGI is above 66.6 µM in the assay with SK-MEL-2 melanoma, 35.8 µM with UACC-62 melanoma, 52.7 µM in the assay on HS 578T breast and above 57 µM in the assay with M14 melanoma.

Consider `CCOC(=O)NN(C(=O)OCC)C(C(=O)c1ccccc1)N(NC(=O)OCC)C(=O)OCC`, for which the TGI in the assay with T-47D breast, in the assay on MDA-MB-435, with OVCAR-3 ovarian, with HCT-15 colon, with LOX IMVI melanoma and in the assay on HCC-2998 colon was above 100 µM each time. For the same compound, the TGI in the assay with UACC-62 melanoma, in the assay on HS 578T breast and with M14 melanoma was above 100 µM in each case.

As to `O=c1/c(=C/c2ccccn2)sc2nc3cc4c(cc3n12)OCCO4`, the TGI in the assay on T-47D breast, in the assay with MDA-MB-435, in the assay on OVCAR-3 ovarian, in the assay on HCT-15 colon, in the assay with LOX IMVI melanoma and in the assay with HCC-2998 colon was above 100 µM throughout. Further, the TGI in the assay on SK-MEL-2 melanoma, in the assay on UACC-62 melanoma, in the assay with HS 578T breast and in the assay with M14 melanoma was above 100 µM throughout.

On to `Nc1ccn(C2CCC(COP(=O)(O)OCC(O)COP(=O)(O)OCC3OC(n4cc(F)c(=O)[nH]c4=O)CC3O)O2)c(=O)n1` (stereo not given), for which the TGI in the assay on T-47D breast, in the assay with MDA-MB-435, in the assay on OVCAR-3 ovarian, in the assay on HCT-15 colon, in the assay with LOX IMVI melanoma and in the assay on HCC-2998 colon was above 100 µM in each case. The TGI in the assay with SK-MEL-2 melanoma, with HS 578T breast and with M14 melanoma was above 100 µM each time.

As to `N#CC1=C(N)N(/N=C/c2ccco2)C(c2ccco2)C1(C#N)C#N` (stereo not given), the TGI with T-47D breast was found to be 33.2 µM; in the assay on MDA-MB-435, 41.4 µM; with OVCAR-3 ovarian, 39 µM; with HCT-15 colon, 38.8 µM; with LOX IMVI melanoma, 28.2 µM; in the assay on HCC-2998 colon, 34.7 µM. Moreover, the TGI in the assay with SK-MEL-2 melanoma stood at 47.4 µM; in the assay with UACC-62 melanoma it was 42.4 µM; in the assay with HS 578T breast, 97.2 µM; in the assay on M14 melanoma it was 43.6 µM.

`CCOC(=O)c1cc(C)nc2c1c(=O)n(-c1ccccc1)c(=O)n2CCCCN1CCN(c2ncccn2)CC1`: the TGI in the assay on T-47D breast, in the assay with MDA-MB-435, in the assay with OVCAR-3 ovarian, in the assay on LOX IMVI melanoma, in the assay with HCC-2998 colon and with SK-MEL-2 melanoma was above 100 µM in each case. In addition, the TGI with UACC-62 melanoma, in the assay on HS 578T breast and in the assay with M14 melanoma was above 100 µM in each case.

With `CC(C)(C)OC(=O)N1N=CCC1c1ccccc1` (stereo not given), the TGI in the assay with T-47D breast, with MDA-MB-435, in the assay with OVCAR-3 ovarian, with HCT-15 colon, in the assay with LOX IMVI melanoma and in the assay with HCC-2998 colon was above 100 µM in each case. Moreover, the TGI in the assay on UACC-62 melanoma, in the assay with HS 578T breast and in the assay on M14 melanoma was above 100 µM in each case.

For the compound `COC(=O)c1c2c(cc3c1CC1(Cc4ccccc4C1)C3)CCC2`, the TGI was 43.2 µM with T-47D breast; 39.1 µM in the assay with MDA-MB-435; 47.6 µM in the assay with OVCAR-3 ovarian; above 100 µM in the assay on HCT-15 colon; 34 µM in the assay with LOX IMVI melanoma; 98.7 µM in the assay with HCC-2998 colon. For the same compound, the TGI with UACC-62 melanoma stood at 58.8 µM; with HS 578T breast, 79.7 µM.
